What all share (assay type): functional, cell-based
One assay has as its system HepG2. Kind of assay: Antiproliferative activity against human HepG2 cells assessed as reduction in cell viability incubated for 48 hrs by MTT assay. The following applies: HepG2, 48 h. A general note: Tetrazolium dyes change colour on reduction, which living cells bring about.
The test system of a further assay is SMMC-7721. Kind of assay: Antiproliferative activity against human SMMC-7721 cells assessed as reduction in cell viability incubated for 48 hrs by MTT assay.
For the next assay, the system named is Hep 3B2. Nature of the assay: Antiproliferative activity against human Hep3B cells assessed as reduction in cell viability incubated for 48 hrs by MTT assay.
The mark [1] stands for this setting: Homo sapiens, SMMC-7721, 48 h, read-out: IC50.

A word on the IC50: it is the midpoint of a concentration-inhibition curve.

For `CCN(CC)C[C@@H](O)COc1cc(O)c2c(=O)c(O[C@H]3O[C@H](C)[C@@H](O)[C@H](O)[C@@H]3O)c(-c3ccc(OC)cc3)oc2c1CC=C(C)C`, the IC50 is > 10 µM in the assay on HepG2, > 10 µM in the assay on SMMC-7721 (setting [1]) and 8.3 µM in the assay with Hep 3B2.
On to `COc1ccc(-c2oc3c(CC=C(C)C)c(OCCCCN4CCC(O)CC4)cc(O)c3c(=O)c2O[C@H]2O[C@H](C)[C@@H](O)[C@H](O)[C@@H]2O)cc1`, for which the figures for the IC50 in the assay with HepG2, in the assay on SMMC-7721 (setting [1]) and with Hep 3B2 were 6.5 µM, 7.1 µM and 5.7 µM, respectively.
Take `COc1ccc(-c2oc3c(CC=C(C)C)c(OCCCCN(C)C)cc(O)c3c(=O)c2O[C@H]2O[C@H](C)[C@@H](O)[C@H](O)[C@@H]2O)cc1`: the results for the IC50 in the assay with HepG2, in the assay on SMMC-7721 (smmc-7721) and with Hep 3B2 were > 10 µM, “Not Active” and 8.7 µM, respectively.
For `COc1ccc(-c2oc3c(CC=C(C)C)c(OCCCCN4CCCC4)cc(O)c3c(=O)c2O[C@H]2O[C@H](C)[C@@H](O)[C@H](O)[C@@H]2O)cc1`, the results for the IC50 in the assay with HepG2, with SMMC-7721 (setting [1]) and in the assay on Hep 3B2 were 3 µM, > 10 µM and 4 µM, respectively.
Turning to `COc1ccc(-c2oc3c(CC=C(C)C)c(OCCN4CCNCC4)cc(O)c3c(=O)c2O[C@H]2O[C@H](C)[C@@H](O)[C@H](O)[C@@H]2O)cc1`, the IC50 is > 10 µM in the assay on HepG2, “Not Active” with SMMC-7721 (smmc-7721) and > 10 µM in the assay on Hep 3B2.
For the molecule `COc1ccc(-c2oc3c(CC=C(C)C)c(OCCCN)cc(O)c3c(=O)c2O[C@H]2O[C@H](C)[C@@H](O)[C@H](O)[C@@H]2O)cc1`, the IC50 in the assay with HepG2 is > 10 µM; with SMMC-7721 (smmc-7721), “Not Active”; in the assay with Hep 3B2, > 10 µM.
For the molecule `COc1ccc(-c2oc3c(CC=C(C)C)c(OCCN4CCC(N5CCCCC5)CC4)cc(O)c3c(=O)c2O[C@H]2O[C@H](C)[C@@H](O)[C@H](O)[C@@H]2O)cc1`, the IC50 with HepG2 is > 10 µM; in the assay on SMMC-7721 (smmc-7721), “Not Active”; with Hep 3B2, > 10 µM.
As to `COc1ccc(-c2oc3c(CC=C(C)C)c(OCCOCCN4CCC(O)CC4)cc(O)c3c(=O)c2O[C@H]2O[C@H](C)[C@@H](O)[C@H](O)[C@@H]2O)cc1`, the values for the IC50 in the assay on HepG2, with SMMC-7721 (smmc-7721) and in the assay on Hep 3B2 were > 10 µM, “Not Active” and > 10 µM, respectively.
In the case of `CCN(CC)CCCCOc1cc(O)c2c(=O)c(O[C@H]3O[C@H](C)[C@@H](O)[C@H](O)[C@@H]3O)c(-c3ccc(OC)cc3)oc2c1CC=C(C)C`, the IC50 in the assay with HepG2 turned out to be 3.8 µM; in the assay with SMMC-7721 (setting [1]) it was 6.4 µM; in the assay on Hep 3B2, 5.4 µM.
For the molecule `COc1ccc(-c2oc3c(CC=C(C)C)c(OCCN)cc(O)c3c(=O)c2O[C@H]2O[C@H](C)[C@@H](O)[C@H](O)[C@@H]2O)cc1`, the IC50 was > 10 µM in the assay with HepG2, “Not Active” in the assay on SMMC-7721 (smmc-7721) and > 10 µM with Hep 3B2.
On to `COc1ccc(-c2oc3c(CC=C(C)C)c(OCCOCCOCCOCCN4CCCC4)cc(O)c3c(=O)c2O[C@H]2O[C@H](C)[C@@H](O)[C@H](O)[C@@H]2O)cc1`, for which the IC50 with HepG2 was > 10 µM; in the assay on SMMC-7721 (setting [1]), > 10 µM; with Hep 3B2, 9.8 µM.
Regarding `COc1ccc(-c2oc3c(CC=C(C)C)c(OCCCCN4CCC(N5CCCCC5)CC4)cc(O)c3c(=O)c2O[C@H]2O[C@H](C)[C@@H](O)[C@H](O)[C@@H]2O)cc1`, the IC50 was found to be 7.6 µM with HepG2, 6.4 µM with SMMC-7721 (setting [1]) and 3.9 µM with Hep 3B2.
For `COc1ccc(-c2oc3c(CC=C(C)C)c(OCCOCCN4CCCC4)cc(O)c3c(=O)c2O[C@H]2O[C@H](C)[C@@H](O)[C@H](O)[C@@H]2O)cc1`, the results for the IC50 in the assay on HepG2, in the assay with SMMC-7721 (setting [1]) and with Hep 3B2 were 8.6 µM, 8.6 µM and 6.4 µM, respectively.
Consider `COc1ccc(-c2oc3c(CC=C(C)C)c(OCCCN4CCC(N5CCCCC5)CC4)cc(O)c3c(=O)c2O[C@H]2O[C@H](C)[C@@H](O)[C@H](O)[C@@H]2O)cc1`, for which the IC50 in the assay with HepG2 is 6.6 µM; with SMMC-7721 (setting [1]) it was > 10 µM; in the assay on Hep 3B2, 5.6 µM.
On to `CCCCN(CCCC)CCOc1cc(O)c2c(=O)c(O[C@H]3O[C@H](C)[C@@H](O)[C@H](O)[C@@H]3O)c(-c3ccc(OC)cc3)oc2c1CC=C(C)C`, for which the IC50 in the assay on HepG2 was > 10 µM; with SMMC-7721 (smmc-7721) it was “Not Active”; in the assay with Hep 3B2, > 10 µM.
Regarding `COc1ccc(-c2oc3c(CC=C(C)C)c(OCCN4CCC(C)CC4)cc(O)c3c(=O)c2O[C@H]2O[C@H](C)[C@@H](O)[C@H](O)[C@@H]2O)cc1`, the half-maximal inhibitory concentration (IC50) is > 10 µM in the assay with HepG2, “Not Active” in the assay on SMMC-7721 (smmc-7721) and > 10 µM in the assay on Hep 3B2.
For `COc1ccc(-c2oc3c(CC=C(C)C)c(OCCCN4CCOCC4)cc(O)c3c(=O)c2O[C@H]2O[C@H](C)[C@@H](O)[C@H](O)[C@@H]2O)cc1`, the IC50 in the assay with HepG2 is 7.4 µM; in the assay with SMMC-7721 (setting [1]), > 10 µM; in the assay on Hep 3B2 it was 8 µM.
As to `COc1ccc(-c2oc3c(CC=C(C)C)c(OCCCN(C)C)cc(O)c3c(=O)c2O[C@H]2O[C@H](C)[C@@H](O)[C@H](O)[C@@H]2O)cc1`, the figures for the 50% inhibitory concentration (IC50) with HepG2, in the assay on SMMC-7721 (smmc-7721) and in the assay on Hep 3B2 were > 10 µM, “Not Active” and > 10 µM, respectively.
Take `COc1ccc(-c2oc3c(CC=C(C)C)c(OCCN4CCC(O)CC4)cc(O)c3c(=O)c2O[C@H]2O[C@H](C)[C@@H](O)[C@H](O)[C@@H]2O)cc1`: the IC50 with HepG2 was > 10 µM; in the assay with SMMC-7721 (smmc-7721) it was “Not Active”; in the assay with Hep 3B2, > 10 µM.
As for `CCCCN(CCCC)CCCCOc1cc(O)c2c(=O)c(O[C@H]3O[C@H](C)[C@@H](O)[C@H](O)[C@@H]3O)c(-c3ccc(OC)cc3)oc2c1CC=C(C)C`, the IC50 was 9.8 µM in the assay with HepG2, “Not Active” with SMMC-7721 (smmc-7721) and > 10 µM with Hep 3B2.
`COc1ccc(-c2oc3c(CC=C(C)C)c(OCCCC(=O)NO)cc(O)c3c(=O)c2O[C@H]2O[C@H](C)[C@@H](O)[C@H](O)[C@@H]2O)cc1`: the IC50 in the assay with HepG2, in the assay on SMMC-7721 (setting [1]) and in the assay on Hep 3B2 was > 10 µM in each case.
Regarding `CCCCN(CCCC)CCCOc1cc(O)c2c(=O)c(O[C@H]3O[C@H](C)[C@@H](O)[C@H](O)[C@@H]3O)c(-c3ccc(OC)cc3)oc2c1CC=C(C)C`, the IC50 is > 10 µM in the assay with HepG2, “Not Active” with SMMC-7721 (smmc-7721) and 9.3 µM in the assay with Hep 3B2.
On the same counts, the results for `COc1ccc(-c2oc3c(CC=C(C)C)c(OCCCCN4CCNCC4)cc(O)c3c(=O)c2O[C@H]2O[C@H](C)[C@@H](O)[C@H](O)[C@@H]2O)cc1` are 7.4 µM, “Not Active” and 8 µM.
The matching figures for `COc1ccc(-c2oc3c(CC=C(C)C)c(OCCOCCN4CCNCC4)cc(O)c3c(=O)c2O[C@H]2O[C@H](C)[C@@H](O)[C@H](O)[C@@H]2O)cc1`: > 10 µM, “Not Active” and > 10 µM.
For `CCN(CC)CCCCCCOc1cc(O)c2c(=O)c(O[C@H]3O[C@H](C)[C@@H](O)[C@H](O)[C@@H]3O)c(-c3ccc(OC)cc3)oc2c1CC=C(C)C`, the IC50 in the assay with HepG2 came to 2.5 µM; with SMMC-7721 (setting [1]) it was 6.5 µM; in the assay with Hep 3B2, 8.9 µM.
On the same counts, the results for `CCN(CC)CCOCCOCCOCCOc1cc(O)c2c(=O)c(O[C@H]3O[C@H](C)[C@@H](O)[C@H](O)[C@@H]3O)c(-c3ccc(OC)cc3)oc2c1CC=C(C)C` are 7.1 µM, > 10 µM and 7.2 µM.
The matching figures for `COc1ccc(-c2oc3c(CC=C(C)C)c(OCCCCN)cc(O)c3c(=O)c2O[C@H]2O[C@H](C)[C@@H](O)[C@H](O)[C@@H]2O)cc1`: 4.7 µM, > 10 µM and 4.9 µM.

Values taken from ChEMBL document CHEMBL5226390, “Synthesis and Structure-Activity Analysis of Icaritin Derivatives as Potential Tumor Growth Inhibitors of Hepatocellular Carcinoma Cells” (J Nat Prod, 2023).
